The values below come from paper PMC3726612, “Amiodarone Inhibits Apamin-Sensitive Potassium Currents” (PLoS ONE, 2013).

What all share (type): cell-based
Experiment [1] has as its target T1, human small conductance Ca^2+-activated K^+ channel, subfamily N, member 2 (SK2) (Homo sapiens, UniProt Q9H2S1).
T1 construct: gene KCNN2; transcript variant 1 (NM_021614.2)
Description: whole-cell patch clamp, HEK-293 cells expressing SK2; % inhibition at […]. The note with it: HEK293. A general note: Patch clamp records ionic current or voltage across a cell membrane.

Experiment [2] has as its target T1, human small conductance Ca^2+-activated K^+ channel, subfamily N, member 2 (SK2). Description: whole-cell patch clamp, HEK-293 cells transiently expressing SK2; % inhibition at […]. The note with it: HEK293.
For experiment [3] the target is unchanged. Description: whole-cell patch clamp, HEK-293 cells expressing SK2; % inhibition at […]. The note with it: HEK293; read-out: % inhibition at 500 nM.
Experiment [4] has the same target. Kind of experiment: whole-cell patch clamp, HEK-293 cells transiently expressing SK2.

T1 sequence (Q9H2S1 whole entry): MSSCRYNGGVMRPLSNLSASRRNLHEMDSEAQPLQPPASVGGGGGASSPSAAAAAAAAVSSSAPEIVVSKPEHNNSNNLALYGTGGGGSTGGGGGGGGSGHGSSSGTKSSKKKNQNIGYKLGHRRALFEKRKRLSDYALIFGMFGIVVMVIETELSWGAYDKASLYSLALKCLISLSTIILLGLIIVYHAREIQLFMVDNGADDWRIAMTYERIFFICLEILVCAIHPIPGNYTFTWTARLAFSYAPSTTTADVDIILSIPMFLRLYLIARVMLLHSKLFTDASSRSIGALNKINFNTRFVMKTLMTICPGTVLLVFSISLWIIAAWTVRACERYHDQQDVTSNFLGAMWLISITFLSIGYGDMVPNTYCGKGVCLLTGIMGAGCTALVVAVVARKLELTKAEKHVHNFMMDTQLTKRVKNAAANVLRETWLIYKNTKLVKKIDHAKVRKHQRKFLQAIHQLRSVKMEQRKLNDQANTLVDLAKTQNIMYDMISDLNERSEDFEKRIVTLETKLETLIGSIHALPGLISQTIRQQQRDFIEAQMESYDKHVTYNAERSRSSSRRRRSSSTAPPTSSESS

Take `CCS(=O)(=O)N(C)[C@H]1c2cc(C#N)ccc2OC(C)(C)[C@@H]1O` (racemic) [chromanol 293B]: in experiment [1], the inhibition at 100 µM was found to be 38.2 ± 15%.

In experiment [2], `CCCCc1oc2ccccc2c1C(=O)c1cc(I)c(OCCNCC)c(I)c1` [DEA, desethylamiodarone] returned an inhibition at 20 µM of 79%.

As for `Cc1cccc(CCN2CCC(C(=O)c3ccc(NS(C)(=O)=O)cc3)CC2)n1` [E-4031], in experiment [3], the inhibition at 0.5 µM came to 37.6 ± 14.9%.

In experiment [4], `CCCCc1oc2ccccc2c1C(=O)c1cc(I)c(OCCN(CC)CC)c(I)c1` [amiodarone] came in with a half-inhibitory concentration (IC50) of 2.67 ± 0.25 µM.

As usually defined, the inhibition is the change of the read-out against control, counted positive when it falls. As usually defined, the IC50 is the concentration that inhibits the measured activity by half. High values mean lower potency, low ones higher potency.
